By EC50 is commonly meant the concentration at which the effect is half-maximal. The EC90 is the concentration needed for an effect of 90%. Low readings indicate an effect from little substance, high ones a need for much substance. As usually defined, the CC50 is the concentration at which the toxic effect on the cells reaches its halfway point. Lower therefore signals harm at low concentration.

Drawing on PubChem BioAssay AID806 (SRMLSC, 2007), this text covers EC50, EC90 and CC50 for 54 molecules.

Active and inactive are the calls of the source. No rule for the calls is given here.

The subject of this test is virus-infected cells, CPE inhibition, dose response. The experiment in a line: PubChem AID 806. The following applies: for EC90: measured here: EC90 CPE inhibition; for CC50: measured here: cytotoxicity, cell viability IC50.

On to `CCOC(=O)/C=C1\SCC(=O)N1CC(=O)Nc1ccc2c(c1)CCC2`, for which the EC50 is > 60 µM (inactive), the EC90 is greater than 60 µM and the CC50 was greater than 60 µM.
With `CN(C)S(=O)(=O)c1ccc(C(=O)NCc2ccccc2)cc1`, the EC50 was > 60 µM (inactive), the EC90 is greater than 60 µM and the CC50 is greater than 60 µM.
Regarding `COc1ccc(Cl)cc1NC(=O)CS(=O)(=O)c1cccc2nsnc12`, the EC50 is > 60 µM (inactive), the EC90 was greater than 60 µM and the CC50 was greater than 60 µM.
On to `CCCCN(C(=O)Cn1nnc2ccccc21)C(C(=O)NCc1ccco1)c1ccncc1` (configuration not stated), for which the EC50 is > 60 µM (inactive), the EC90 is greater than 60 µM and the CC50 was greater than 60 µM.
On to `O=C(c1ccco1)N1CCn2c1nc1ccccc12`, for which the EC50 was > 60 µM (inactive), the EC90 was greater than 60 µM and the CC50 was greater than 60 µM.
Consider `COc1ccccc1CNC(=O)c1ccc(S(=O)(=O)N2CCCC2)cc1`, for which the EC50 was > 60 µM (inactive), the EC90 is greater than 60 µM and the cytotoxic concentration (CC50) is greater than 60 µM.
As to `O=C(c1cnn2c(C(F)F)cc(-c3ccccc3)nc12)N1CCOCC1`, the EC50 was > 60 µM (inactive), the EC90 was greater than 60 µM and the CC50 was greater than 60 µM.
`O=C(CSc1ccc2nnc(-c3ccccc3)n2n1)NCc1ccco1`: the EC50 is > 60 µM (inactive), the EC90 is greater than 60 µM and the CC50 was greater than 60 µM.
Take `Cc1ccc(SCC(=O)Nc2ccc(-c3nnc(-c4ccco4)o3)cc2)cc1`: the EC50 was > 60 µM (inactive), the EC90 was greater than 60 µM and the cytotoxic concentration (CC50) was greater than 60 µM.
Take `CC1CCCN(C(=O)Nc2cccc(NC(=O)N3CCCC(C)C3C)c2)C1C` (configuration not stated): the EC50 is > 60 µM (inactive), the 90% effect concentration (EC90) was greater than 60 µM and the CC50 was greater than 60 µM.
For the molecule `CCOc1ccccc1NC(=O)C1CCCCN1S(=O)(=O)c1ccc(F)cc1` (configuration not stated), the EC50 is > 60 µM (inactive), the EC90 was greater than 60 µM and the CC50 was greater than 60 µM.
`CN(C)CCSc1nnc(-c2ccccc2)o1`: the EC50 is > 60 µM (inactive), the EC90 is greater than 60 µM and the CC50 is greater than 60 µM.
Consider `O=C(Nc1c(-c2ccccc2)nc2sccn12)c1ccccc1`, for which the EC50 is 0.634 µM, the EC90 is greater than 60 µM and the CC50 was greater than 60 µM.
On to `CCN(CC)C(=O)CSc1nnc2sc3ccccc3n12`, for which the EC50 was > 60 µM (inactive), the EC90 was greater than 60 µM and the CC50 is greater than 60 µM.
Regarding `Cc1ccc(NC(=O)C2=C(O)c3sccc3N(C)S2(=O)=O)cc1`, the EC50 is > 60 µM (inactive), the EC90 was greater than 60 µM and the CC50 was greater than 60 µM.
For the molecule `COc1c(C(C)C)cc(NC(C)=O)cc1C(C)C`, the EC50 was > 60 µM (inactive), the EC90 is greater than 60 µM and the CC50 was greater than 60 µM.
Regarding `CCOC(=O)/C=C1\SCC(=O)N1CC(=O)NC12CC3CC(CC(C3)C1)C2`, the EC50 is > 60 µM (inactive), the EC90 is greater than 60 µM and the CC50 was greater than 60 µM.
On to `O=C(c1cnn2c(C(F)(F)F)cc(-c3ccc(Br)cc3)nc12)N1CCOCC1`, for which the EC50 is > 60 µM (inactive), the EC90 is greater than 60 µM and the CC50 was greater than 60 µM.
For the molecule `O=C(CSc1ccc2nnc(-c3ccncc3)n2n1)NCc1ccco1`, the EC50 is > 60 µM (inactive), the 90% effect concentration (EC90) is greater than 60 µM and the cytotoxic concentration (CC50) is greater than 60 µM.
As to `O=C(CCS(=O)(=O)c1cccc2nsnc12)NC1CCCCC1`, the EC50 was > 60 µM (inactive), the concentration for an effect of 90% (EC90) was greater than 60 µM and the CC50 was greater than 60 µM.
Regarding `Cc1nc2nc(-c3ccc(Cl)cc3)[nH]n2c(=O)c1Cc1ccccc1`, the EC50 is > 60 µM (inactive), the EC90 was greater than 60 µM and the CC50 was greater than 60 µM.
Take `Cc1cccc(NC(=O)CCS(=O)(=O)c2cccc3nsnc23)c1C`: the EC50 was > 60 µM (inactive), the EC90 is greater than 60 µM and the CC50 is greater than 60 µM.
`CC(NC(=O)c1ccc(S(=O)(=O)N(C)C)cc1)c1ccccc1` (configuration not stated): the EC50 is > 60 µM (inactive), the EC90 was greater than 60 µM and the half-maximal cytotoxic concentration (CC50) is greater than 60 µM.
Consider `O=C(c1ccc(S(=O)(=O)N2CCOCC2)cc1)N1CCc2ccccc2C1`, for which the EC50 was > 60 µM (inactive), the EC90 is greater than 60 µM and the CC50 was greater than 60 µM.
As for `COc1cccc(CNC(=O)c2ccc(S(=O)(=O)N3CCCC3)cc2)c1`, the EC50 is > 60 µM (inactive), the EC90 was greater than 60 µM and the half-maximal cytotoxic concentration (CC50) was greater than 60 µM.
Take `Cc1cc2oc(C(=O)Nc3cccnc3)c(C)c2cc1C`: the EC50 is > 60 µM (inactive), the 90% effect concentration (EC90) was greater than 60 µM and the CC50 was greater than 60 µM.
`CC1CCN(C(=O)Nc2cccc(NC(=O)N3CCC(C)CC3)c2)CC1`: the EC50 was > 60 µM (inactive), the EC90 was greater than 60 µM and the CC50 was greater than 60 µM.
Take `COc1ccc(OC)c(NC(=O)c2cc3ccccc3o2)c1`: the EC50 is > 60 µM (inactive), the EC90 is greater than 60 µM and the cytotoxic concentration (CC50) is greater than 60 µM.
Turning to `O=C(c1cc(-c2ccc(Cl)cc2)n(-c2ccc(Cl)cc2Cl)n1)N1CCOCC1`, the EC50 was > 60 µM (inactive), the EC90 was greater than 60 µM and the CC50 was greater than 60 µM.
With `CCC(=O)N1CCn2c1nc1ccccc12`, the EC50 was > 60 µM (inactive), the EC90 is greater than 60 µM and the CC50 was greater than 60 µM.
For the molecule `Cc1ccc(S(=O)(=O)N2CCCCC2C(=O)NCc2ccco2)cc1` (configuration not stated), the EC50 is > 60 µM (inactive), the EC90 was greater than 60 µM and the CC50 was greater than 60 µM.
For the molecule `CC(=O)Nc1ccc(Nc2ncnc3c2cnn3-c2ccc(C)cc2C)cc1`, the EC50 was > 60 µM (inactive), the EC90 is greater than 60 µM and the CC50 was greater than 60 µM.
Consider `COCCNC(=O)c1noc2c1CCc1cc(OC)ccc1-2`, for which the EC50 is > 60 µM (inactive), the EC90 is greater than 60 µM and the CC50 was greater than 60 µM.
For `O=C(Nc1ccccc1)c1cc2ccccc2o1`, the EC50 was > 60 µM (inactive), the EC90 is greater than 60 µM and the CC50 was greater than 60 µM.
In the case of `O=C(Nc1cccc(O)c1)c1noc2c1CCc1ccccc1-2`, the EC50 is > 60 µM (inactive), the EC90 was greater than 60 µM and the half-maximal cytotoxic concentration (CC50) was greater than 60 µM.
On to `O=C(NCC1CCCO1)C1CCCCN1S(=O)(=O)c1ccc(F)cc1` (configuration not stated), for which the EC50 is > 60 µM (inactive), the EC90 is greater than 60 µM and the CC50 is greater than 60 µM.
Take `O=C(NCc1cccnc1)C1CCCCN1S(=O)(=O)c1ccc(F)cc1` (configuration not stated): the EC50 is > 60 µM (inactive), the EC90 is greater than 60 µM and the half-maximal cytotoxic concentration (CC50) is greater than 60 µM.
For the molecule `Cc1ccc(CNC(=O)CCS(=O)(=O)c2cccc3nsnc23)cc1`, the EC50 was > 60 µM (inactive), the EC90 was greater than 60 µM and the CC50 is greater than 60 µM.
Regarding `CC(C)(C)c1ccc(OCCn2ccccc2=O)cc1`, the EC50 was > 60 µM (inactive), the EC90 was greater than 60 µM and the CC50 was found to be 40.9 µM.
Regarding `Cc1ccccc1NC(=O)c1ccc(NC(=O)c2ccco2)cc1`, the EC50 is > 60 µM (inactive), the EC90 is greater than 60 µM and the CC50 was greater than 60 µM.
With `Cc1cc(C(=O)NCc2ccccc2)c(=O)[nH]c1C`, the EC50 was > 60 µM (inactive), the EC90 is greater than 60 µM and the CC50 was greater than 60 µM.
Take `Cc1ccc(S(=O)(=O)N2CCCCC2C(=O)N2CCN(C)CC2)cc1` (configuration not stated): the EC50 was > 60 µM (inactive), the EC90 was greater than 60 µM and the CC50 is greater than 60 µM.
`O=C1CC(C(=O)Nc2ccccc2)C2(CCCC2)O1` (configuration not stated): the EC50 is > 60 µM (inactive), the EC90 was greater than 60 µM and the CC50 was greater than 60 µM.
Regarding `CCSc1nnc(-c2ccncc2)o1`, the EC50 was > 60 µM (inactive), the EC90 was greater than 60 µM and the CC50 was greater than 60 µM.
For `COc1ccccc1Nc1ncnc2c1cnn2-c1cccc(C)c1`, the EC50 was > 60 µM (inactive), the 90% effect concentration (EC90) was greater than 60 µM and the CC50 was greater than 60 µM.
With `N#CCC(=O)N1CCn2c1nc1ccccc12`, the EC50 is > 60 µM (inactive), the EC90 is greater than 60 µM and the CC50 is greater than 60 µM.
Regarding `COc1ccc(-n2ncc3c(N4CCc5ccccc54)ncnc32)cc1`, the EC50 is > 60 µM (inactive), the EC90 is greater than 60 µM and the CC50 was greater than 60 µM.
In the case of `CCCN(CCC)C(=O)CCS(=O)(=O)c1cccc2nsnc12`, the EC50 was > 60 µM (inactive), the concentration for an effect of 90% (EC90) is greater than 60 µM and the CC50 was greater than 60 µM.
For the molecule `CC(C)c1cccc(C(C)C)c1OCCn1ccnc1`, the EC50 was > 60 µM (inactive), the concentration for an effect of 90% (EC90) was greater than 60 µM and the CC50 was greater than 60 µM.
On to `COc1ccc(NC(=O)C2CCCCN2S(=O)(=O)c2ccc(F)cc2)c(OC)c1` (configuration not stated), for which the EC50 was > 60 µM (inactive), the EC90 is greater than 60 µM and the 50% cytotoxic concentration (CC50) was greater than 60 µM.
On to `Cc1sc2nc3c4ccccc4c(NCc4ccco4)nn3c(=O)c2c1C`, for which the EC50 is > 60 µM (inactive), the EC90 was greater than 60 µM and the half-maximal cytotoxic concentration (CC50) worked out at 4.2 µM.
As to `COc1ccc(OC)c(Nc2ncnc3c2cnn3-c2cccc(C)c2)c1`, the EC50 is > 60 µM (inactive), the EC90 was greater than 60 µM and the CC50 is greater than 60 µM.
As for `Cc1ccc(-c2nnc3ccc(SCC(=O)NCc4ccco4)nn23)cc1`, the EC50 is > 60 µM (inactive), the EC90 is greater than 60 µM and the CC50 is greater than 60 µM.
For `Cc1cccc(-n2ncc3c(N4CCCc5ccccc54)ncnc32)c1`, the EC50 was > 60 µM (inactive), the EC90 was greater than 60 µM and the CC50 was greater than 60 µM.
